Key:
[1] = system: Carrageenan-induced rat paw edema; assay: Carrageenan-induced rat paw edema (anti-inflammatory efficacy); type: in vivo; settings: rats, 3, 5 and 7 hours post-carrageenan, p<0.05, FIG. 3
Method: Efficacy of DP-DFC lipid derivatives was tested in vivo in the model system of rodent carrageenan edema test.
Carrageenan-induced rat paw edema is a widely employed animal model for acute inflammation. The objective of the study is to assess the potential prophylactic effects of DP-DCF derivatives on the prevention of inflammatory swelling and, in particular, to compare the efficacy parameters with those obtained for diclofenac. The experimental set-up was as follows: Male Sprague-Dawley rats weighing 120–180 g (supplied by Harlan Laboratories Breeding Center, Israel) were intraperitoneally (i.p.) injected with drug or prodrug one hour prior to the induction of inflammation with carrageenan. Animals injected with vehicle alone served as control group.
Paw edema was induced by a single sub-plantar injection of 0.1 ml 2% carrageenan in physiological saline, into test animals' right hind paws. Just prior to paw edema induction, the paw thickness of the test animals' right hind paws was measured in triplicate using a plethysmograph and micrometer to provide a baseline. At 3, 5 and 7 hours post carrageenan injection, the right paw thickness was measured in the same manner as before.
Potential anti-inflammatory activity in suppressing carrageenan-induced paw oedema was assessed by the relative differences in paw volumes between pre- and post-carrageenan measurements, expressed as (%) change. […]

[2] = system: global forebrain ischemia; assay: Global forebrain ischemia model, serum neuron specific enolase (NSE); type: in vivo, Mongolian gerbils; settings: gerbils
Method: Neuroprotective effects of compounds of the invention were examined in the global forebrain ischemic model system in Mongolian gerbils.
Male Mongolian gerbils 60–70 g (Charles River Laboratories, USA) were used in this study. Global forebrain ischemia was induced by transient occlusion of both carotid arteries for 10 minutes, using arterial clips. The tested compounds were orally administered to the animals, 7–8 animals per group, by either one of two schemes: • a) single dose administration of commercial diclofenac (Sigma, USA; 10 mg/kg) or dose-equivalent of DP-DCF; Z=5 (30 mg/kg). The administration was per os (p.o.) two hours before induction of ischemia (FIG. 4); • b) multiple dosing of DP-DCF; Z=5 (30 mg/kg) orally administered daily for 5 days beginning four days prior to induction of ischemia. (FIG. 5).
In both schemes, animals treated with vehicle alone served as control groups. Blood samples were withdrawn from eye sinuses of the animals 24 hours after the onset of ischemia and serum levels of neuron specific enolase (NSE) were determined by radioimmunoassay using NSE kit (Pharmatope Ltd., Israel).
It has been shown that serum levels of NSE are elevated in the event of ischemic insult. Thus, serum level of NSE may serve as a marker for the degree of neuronal damage (Barone et al. (1993) Brain Res. 623: 77–82).

[3] = In vivo sub-chronic toxicity study: body weight changes; set-up: species or system rat; settings: rats, 10 mg/kg p.o. gavage daily for 14 days; FIG. 1
Method: DP-DCF compounds were evaluated for sub-chronic toxicity during 14-day drug administration period by following two criteria: a) monitoring body weight changes, and b) evaluating gastro-toxicity scores.
Male Sprague-Dawley rats weighing 250–280 g were kept under standard conditions for an acclimatization period of one week with food and water supplied ad lib. The rats were administered with commercial diclofenac (DCF; Sigma, USA) or with equivalent doses of 1-Stearoyl-2-{4-[2-(2,6-dichloroanilino)-phenylacetamido]butanoyl}-sn-glycero-3-phosphocholine (DP-DCF; Z=3) or 1-Stearoyl-2-{6-[2-(2,6-dichloroanilino)-phenylacetamido]hexanoyl}-sn-glycero-3-phosphocholine (DP-DCF; Z=5), p.o. by gavage daily for 14 days. Animals treated with the vehicle solution alone serve as control group.
The treatment groups were as follows:
A major sign of general toxicity is decreasing of body weight. Male Sabra rats were treated as described above. The rats were weighed prior to dosing at the beginning of the experiment (day zero) and at the 5th, 9th and 13th day of the treatment.

[4] = In vivo sub-chronic toxicity study: gastro-toxicity scores; set-up: species or system rat; settings: rats, 10 mg/kg p.o. daily, day 14; scores 0 (no visible lesions) to 5 (perforation); FIG. 2
Method: Male Sprague-Dawley rats weighing 250–280 g were kept under standard conditions for an acclimatization period of one week with food and water supplied ad lib. […] Animals treated with the vehicle solution alone serve as control group.
Toxicity scores were assessed at the end of the 14-day multiple p.o drug administration period. On day 14, the animals were anesthetized 4 hours after administration of the test materials by i.p. injection of 0.5 ml pentobarbitone sodium (200 mg/ml) and laparatomy was preformed to remove the rat's stomach with approximately 15 mm of the associated duodenum. The stomachs were cut open along the small curvature and washed, with gentle rubbing, under running water. A semi-quantitative assessment of the gastric damage was determined by assigning scores ranging from 0 to 5. The scores indicate as follows: (0) No macroscopically visible lesions; (1) Hyperemia; (2) One-two slight lesions; (3) More than 2 slight lesions; (4) Severe lesions; (5) Perforation.

Compound | Anti-inflammatory activity: suppression of carrageenan-induced increase of paw volume ([1]; 30 mg/kg i.p. one hour prior to carrageenan) | Serum NSE level 24 hours after ischemia ([2]; 30 mg/kg orally daily for 5 days beginning four days prior to ischemia, p<0.05, FIG. 5) | Serum NSE level 24 hours after ischemia ([2]; single dose 30 mg/kg p.o. two hours before ischemia, FIG. 4) | Body weight changes (%) [3] | Gastro-toxicity score [4] | Anti-inflammatory activity: suppression of carrageenan-induced increase of paw volume ([1]; 10 mg/kg i.p. one hour prior to carrageenan)
1-Stearoyl-2-{6-[2-(2,6-dichloroanilino)phenylacetamido]hexanoy}-sn-glycero-3-phosphocholine [DCF n=5] | statistically significant and consistent anti-inflammatory activity | significant reduction in NSE level | reduced in comparison to NSE level in serum of animals that were treated with DCF or vehicle alone | – | – | –
O=C(O)Cc1ccccc1Nc1c(Cl)cccc1Cl [DCF, [o-(2,6-dichloroanilino)phenyl]acetic acid] | – | – | – | maximal decrease of body weight on day 5 | 4 | statistically significant and consistent anti-inflammatory activity

Reference: patent US7173018B2, “Phospholipid derivatives of non-steroidal anti-inflammatory drugs” (D-Pharm, Ltd., priority 1998, dated 2007)
